Results reported in patent publication US8163699B2, “Method for the treatment of valvular disease” (Montreal Heart Institute, priority 2006, dated 2012).
“And” between values parts separate entries of the source, which are not always exact repeats. Identical values can stand only once.

Columns and labels:
Type in all cases: in vivo, New-Zealand White rabbits
[1] = system: aortic valve stenosis (AVS); experiment: Echocardiography (aortic valve area, aortic valve thickness) in rabbit model of aortic valve stenosis; conditions: for Aortic valve area (AVA): 25 mg/kg i.v. 3 times per week; for Aortic valve thickness: treated rabbits
Source text: A complex animal model of aortic valve stenosis has been developed in rabbits.
An animal model adapted from that described by Drolet et al. (12) was used. Fifteen male New-Zealand White rabbits (2.7-3.0 kg, aged 12-13 weeks) were fed with a 0.5% cholesterol-enriched diet (Harlan, Indianapolis, Ind.) plus vitamin D2 (50000 UI per day; Sigma, Markham, Canada) in the drinking water until significant AVS, as defined by a decrease ≧10% of aortic valve area (AVA) or of the transvalvular velocities ratio (V1/V2), could be detected by echocardiography (12.9±2.4 weeks).
(§1) The animals then returned to a standard diet (without vitamin D2) to mimic cholesterol lowering and were randomly assigned to receive either saline (control group, n=8) or the ApoA-1 mimetic peptide (treated group, n=7). Rabbits were given injections through the marginal ear vein of saline or of the ApoA-1 mimetic peptide (25 mg/kg) complexed with phospholipids (Compound A), 3 times per week for 2 weeks. Echocardiograms were performed serially (see Echocardiography Methods) every 3 to 4 days throughout the randomized treatment period. Two days after their last infusion, the animals underwent a final echocardiogram and were sacrificed, and the aortic valves were harvested for histological analyses. Blood samples were obtained through the ear artery at baseline, prior to treatment and before sacrifice. Total cholesterol, HDL cholesterol, triglycerides and calcium levels were measured with an automated filter photometer system (Dimension RxL Max, Dade Behring, Ill.).
Transthoracic echocardiographic studies were performed at baseline, on a weekly basis starting at 8 weeks of hypercholesterolemic diet until significant AVS developed, and then after 4, 7, 10 and 14 days of ApoA-1 mimetic peptide or saline control treatments. Studies were carried out with an S12 probe using a standard echocardiographic system (Sonos 5500, Philips Medical Imaging, MA). Intra-muscular injections of ketamine (45 mg/kg) and midazolam (0.75 mg/kg) were used for sedation.
Parasternal long and short-axis views of the aortic valve were recorded to assess leaflet morphology. Left ventricular outflow tract (LVOT) diameter was measured in a zoomed parasternal long-axis view, and LVOT cross-sectional area (CSALVOT) was calculated according to: CSALVOT=π(DLVOT/2)^2. LVOT velocity (V1) and velocity time integral (VTILVOT) were obtained with pulsed-wave Doppler sampled proximal to the aortic valve in the apical 5-chamber view. Continuous wave (CW) Doppler interrogation across the aortic valve was used to obtain transvalvular maximal velocity (V2) and VTI (VTIAO) in the same view. V1/V2 ratio was calculated in the pre-treatment period to determine AVS development. Aortic valve area (AVA) was obtained at each time point by the continuity equation: AVA=CSALVOT×(VTILVOT/[…]). Aortic valve thickness in its middle portion was measured at end-diastole in a zoomed parasternal long-axis view at baseline, before randomized therapy, and at the final echocardiographic exam.
The average of three consecutive cardiac cycles was used for each measurement. Special care was taken to obtain similar imaging planes on serial examinations by reviewing previous recordings before follow-up study. All echocardiographic imaging and measurements were performed throughout the protocol by the same experienced investigator blinded to randomized treatment assignment.
Data are presented as mean±standard deviation. For the “pre-treatment” period, repeated measures analysis of variance (ANOVA) models were used to study the echocardiographic and serum measurements across time and between groups (treated vs. control groups). Models with time, group and group×time interaction as independent variables were used and comparisons between groups at a given time point were undertaken only in the presence of a significant group×time interaction. Otherwise, global conclusions were drawn based on the main group effects of the model. […]

aortic valve lesions [2] = experiment: Histomorphometry of aortic valves in rabbit model of aortic valve stenosis; conditions: treated group; post mortem after 2 weeks of treatment
Source text: An animal model adapted from that described by Drolet et al. (12) was used. Fifteen male New-Zealand White rabbits (2.7-3.0 kg, aged 12-13 weeks) were fed with a 0.5% cholesterol-enriched diet (Harlan, Indianapolis, Ind.) plus vitamin D2 (50000 UI per day; Sigma, Markham, Canada) in the drinking water until significant AVS, as defined by a decrease ≧10% of aortic valve area (AVA) or of the transvalvular velocities ratio (V1/V2), could be detected by echocardiography (12.9±2.4 weeks). The animals then returned to a standard diet (without vitamin D2) to mimic cholesterol lowering and were randomly assigned to receive either saline (control group, n=8) or the ApoA-1 mimetic peptide (treated group, n=7). Rabbits were given injections through the marginal ear vein of saline or of the ApoA-1 mimetic peptide (25 mg/kg) complexed with phospholipids (Compound A), 3 times per week for 2 weeks. Echocardiograms were performed serially (see Echocardiography Methods) every 3 to 4 days throughout the randomized treatment period. Two days after their last infusion, the animals underwent a final echocardiogram and were sacrificed, and the aortic valves were harvested for histological analyses. Blood samples were obtained through the ear artery at baseline, prior to treatment and before sacrifice. Total cholesterol, HDL cholesterol, triglycerides and calcium levels were measured with an automated filter photometer system (Dimension RxL Max, Dade Behring, Ill.). The ascending aorta and aortic valve were opened longitudinally and the 3 valvular cusps were separated. […] Stained or immunohistochemically labeled tissue sections obtained from the central third of each cusp were analyzed with a computer-based digitizing image system (Image Pro Plus, version 5.1) using a light microscope (BX41, Olympus) connected to a digital video camera (Qcolor3, Olympus). […] Lesion area (LA) and leaflet lesion length (LLL) were measured. […] Relationships between histomorphometry and echocardiographic variables were evaluated using Pearson correlation coefficient. […]

aortic valve lesions [3] = experiment: Histochemistry of aortic valves (von Kossa, filipin, Sirius red, immunohistochemistry) in rabbit model of aortic valve stenosis
Source text: An animal model adapted from that described by Drolet et al. (12) was used. Fifteen male New-Zealand White rabbits (2.7-3.0 kg, aged 12-13 weeks) were fed with a 0.5% cholesterol-enriched diet (Harlan, Indianapolis, Ind.) plus vitamin D2 (50000 UI per day; Sigma, Markham, Canada) in the drinking water until significant AVS, as defined by a decrease ≧10% of aortic valve area (AVA) or of the transvalvular velocities ratio (V1/V2), could be detected by echocardiography (12.9±2.4 weeks). The animals then returned to a standard diet (without vitamin D2) to mimic cholesterol lowering and were randomly assigned to receive either saline (control group, n=8) or the ApoA-1 mimetic peptide (treated group, n=7). Rabbits were given injections through the marginal ear vein of saline or of the ApoA-1 mimetic peptide (25 mg/kg) complexed with phospholipids (Compound A), 3 times per week for 2 weeks. Echocardiograms were performed serially (see Echocardiography Methods) every 3 to 4 days throughout the randomized treatment period. Two days after their last infusion, the animals underwent a final echocardiogram and were sacrificed, and the aortic valves were harvested for histological analyses. Blood samples were obtained through the ear artery at baseline, prior to treatment and before sacrifice. Total cholesterol, HDL cholesterol, triglycerides and calcium levels were measured with an automated filter photometer system (Dimension RxL Max, Dade Behring, Ill.). Hematoxylin-phloxin-safran, von Kossa and Sirius red (F3B, BDH, UK) stained sections were prepared for routine examination, tissue calcification and collagen studies respectively. Collagen fibers types I and III were quantified as previously described (13), on Sirius red picric acid stained sections under polarized light. For immunohistochemistry evaluation, all sections were preincubated with either mouse IgG2a monoclonal antibody against rabbit macrophage (RAM11, Dako, Canada) (1:100 dilution) or rabbit smooth muscle cell α-actin (Clone 1A4, Dako, Canada) (1:200 dilution). Species-appropriate biotinylated secondary antibodies were applied, followed by streptavidin horseradish peroxidase complex, visualized with azoethylcarbazol (AEC) and counterstained by Mayer's hematoxylin. Smooth muscle cells, macrophages and calcification areas were quantified in the ROA on digital images acquired at 40× magnification. Images from each section were digitally captured with the same illumination settings, and automatic computer-based analysis was performed with the same color threshold for all specimens. Data were expressed as percent labelled area in ROA. For assessment of tissue free cholesterol, 5 μm cryosections fixed in 4% paraformaldehyde in PBS (pH 7.4) were stained with filipin (13). Sections were incubated for 1 hour at room temperature in filipin complex (Sigma, Canada) dissolved in DMSO and diluted in PBS, mounted in Vectashield (Vector Laboratories, USA) and viewed by fluorescence microscopy using a Zeiss Axiovert 200M microscope with the DAPI filter set. Images were acquired with an AxioCam MRm digital camera mounted with a 0.63× C-mount adapter. Filipin data were expressed as arbitrary units of fluorescence intensity. Data are presented as mean±standard deviation. For the “pre-treatment” period, repeated measures analysis of variance (ANOVA) models were used to study the echocardiographic and serum measurements across time and between groups (treated vs. control groups). Models with time, group and group×time interaction as independent variables were used and comparisons between groups at a given time point were undertaken only in the presence of a significant group×time interaction. Otherwise, global conclusions were drawn based on the main group effects of the model. […]

[4] = Serum lipids and calcemia in rabbit model of aortic valve stenosis; conditions: for HDL-cholesterol / total cholesterol levels: treated group
Procedure: as §1
Data are presented as mean±standard deviation. For the “pre-treatment” period, repeated measures analysis of variance (ANOVA) models were used to study the echocardiographic and serum measurements across time and between groups (treated vs. control groups). Models with time, group and group×time interaction as independent variables were used and comparisons between groups at a given time point were undertaken only in the presence of a significant group×time interaction. Otherwise, global conclusions were drawn based on the main group effects of the model. For the randomized treatment period, repeated measures analysis of covariance (ANCOVA) models were used to study the echocardiographic and serum measurements across time and between groups (treated vs. control groups), adjusted for the baseline value of the response variable. The group×time interaction was also included in the ANCOVA models and comparisons between groups at a given time point were undertaken only in the presence of a significant group×time interaction. Otherwise, global conclusions were drawn based on the main group effects of the model. Histological variables were compared between treated and control groups using Student t-test. Relationships between histomorphometry and echocardiographic variables were evaluated using Pearson correlation coefficient. All analyses were performed with SAS release 8.2 (SAS Institute Inc., Cary, N.C.) and conducted at the 0.05 significance level.

[5] = treated group, after 7 days of treatment
[6] = treated group, after 10 days of treatment
[7] = treated group, after 14 days of treatment
[8] = treated rabbits, Sirius red, polarized light
[9] = at the time of randomization (pre-treatment value)

Substance: H-Pro-Val-Leu-Asp-Leu-Phe-Arg-Glu-Leu-Leu-Asn-Glu-Leu-Leu-Glu-Ala-Leu-Lys-Gln-Lys-Leu-Lys-OH (H-PVLDLFRELLNELLEALKQKLK-OH; not fully specified) [ApoA-1 mimetic peptide, ApoA-1 mimetic peptide complexed with phospholipids, mimicking nascent HDL]
- Aortic valve area (AVA) [1, 5]: 21.9±3.6 mm^2
- Aortic valve area (AVA) [1, 6]: 23.0±4.1 mm^2
- Aortic valve area (AVA) [1, 7]: 23.8±3.1 mm^2
- relative increase of AVA [1, 5]: 14.2±3.5% and 14.2%
- relative increase of AVA [1, 6]: 19.8±3.5% and 19.8%
- relative increase of AVA [1, 7]: 24.6±2.0% and 24% and 24.6%
- decrease of aortic valve thickness ([1]; treated group, within 14 days of treatment): 21%
- Aortic valve thickness ([1]; at end of treatment (14 days)): 0.075±0.033 cm
- Aortic valve thickness ([1]; before randomization (pre-treatment value)): 0.094±0.034 cm
- % LLL (percentage of total leaflet length occupied by lesion) (aortic valve lesions [2]): 55.7±24.3%
- Lesion extent at the base of valve leaflets and sinuses of Valsalva (aortic valve lesions [2]): 52.8±12.5%
- percentage of lesion area (LA) per region of analysis (ROA) (aortic valve lesions [2]): 52.8±12.5 %/ROA
- decrease in free cholesterol compared to controls (aortic valve lesions [3]; treated animals vs. controls, first 10 μm at luminal edge of lesions, not statistically significant, P=0.231): 41%
- free cholesterol (filipin fluorescent signal) (aortic valve lesions [3]; treated animals, within the first 10 μm at the luminal edge of lesions): 221±54 arbitrary units of fluorescence intensity
- percentage of rabbits with calcium deposits in the lesion core in the sinuses of Valsalva (aortic valve lesions [3]; treated group): 57%
- decrease of calcification area compared to controls (aortic valve lesions [3]; treated group vs. controls, von Kossa staining, strong trend, P=0.063): 77%
- percentage of the sinus of Valsalva area occupied by calcifications (aortic valve lesions [3]; treated group, von Kossa staining): 1.6±2.0%
- percentage of collagen type I fibers in the ROA (aortic valve lesions [3]; [8]): 5.5±5.6 %/ROA
- percentage of collagen type III fibers in the ROA (aortic valve lesions [3]; [8]): 19.1±11.3 %/ROA
- macrophage areas (aortic valve lesions [3]; treated vs. control group, RAM11 immunohistochemistry): no significant differences between groups
- α-actin positive areas (aortic valve lesions [3]; treated vs. control group, smooth muscle cell α-actin immunohistochemistry): no significant differences between groups
- HDL-cholesterol ([4]; at end of treatment): 0.45 ± 0.17 mmol/L
- total cholesterol levels ([4]; at end of treatment): 17.57 ± 10.32 mmol/L
- HDL-cholesterol [4, 9]: 0.50 ± 0.15 mmol/L
- total cholesterol levels [4, 9]: 20.13 ± 5.18 mmol/L
- triglyceride levels ([4]; treated vs. control group during treatment period, P=0.544): similar
